Results as given in US12043599B2, “Herbicidal compounds” (SYNGENTA PARTICIPATIONS AG, priority 2018, dated 2024).

What was measured:
Assay type in all cases: in vivo
Settings in all cases: 250 g/h, evaluated after 13 days
Setaria faberi (SETFA) [1] = test: Post-emergence herbicidal glasshouse test, percentage damage
Outline: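 Wheat, barley and Setaria faberi were sprayed post-emergence after 8 days' growth (24/16 °C, 14 h light, 65% humidity) with compound in acetone/water (50:50) containing 0.5% Tween 20, at the indicated rates. On wheat, compounds were also applied with cloquintocet-mexyl at 50 g/ha. Damage was scored after 13 days on a five-point scale (5=80-100% to 1=0-19%).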

Setaria faberi (SETFA) [2] = test: Pre-emergence herbicidal glasshouse test, percentage damage
Outline: (§1)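 Pots of the weeds sprayed either 1 day after sowing (pre-emergence) or after 8 days' growth (post-emergence), at 250 g/h in acetone/water with 0.5% Tween 20. Grown in a glasshouse at 24/16° C. day/night with 14 h light and 65% humidity. Damage scored 13 days later on a 1–5 scale (5=80-100%, 1=0-19%).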

Lolium perenne (LOLPE) [3] = test: as above
Outline: as §1

[4] = test system: Alopecurus myosuroides (ALOMY); test: as above
Outline: as §1

Avena fatua (AVEFA) [5] = test: as above
Outline: as §1

[6] = test system: Echinochloa crus-galli (ECHCG); test: as above
Outline: as §1

Lolium perenne (LOLPE) [7] = test: Post-emergence herbicidal glasshouse test, percentage damage
Outline: as §1

[8] = test system: Alopecurus myosuroides (ALOMY); test: as above
Outline: as §1

Avena fatua (AVEFA) [9] = test: as above
Outline: as §1

[10] = test system: Echinochloa crus-galli (ECHCG); test: as above
Outline: as §1

CC#Cc1cc(C)c(C2C(=O)CC3(CCN(C(=O)Cc4ccncn4)CC3)CC2=O)c(C)c1 [Compound A101]
5 (5=80-100%): SETFA POST percentage damage (five point scale) (Setaria faberi (SETFA) [1]) | SETFA PRE percentage damage (five point scale) (Setaria faberi (SETFA) [2]) | LOLPE PRE percentage damage (five point scale) (Lolium perenne (LOLPE) [3]) | ECHCG PRE percentage damage (five point scale) [6] | LOLPE POST percentage damage (five point scale) (Lolium perenne (LOLPE) [7]) | ALOMY POST percentage damage (five point scale) [8] | AVEFA POST percentage damage (five point scale) (Avena fatua (AVEFA) [9]) | ECHCG POST percentage damage (five point scale) [10]
4 (4=60-79%): ALOMY PRE percentage damage (five point scale) [4] | AVEFA PRE percentage damage (five point scale) (Avena fatua (AVEFA) [5])

CC#Cc1cc(C)c(C2C(=O)CC3(CCN(C(=O)Cc4ncccn4)CC3)CC2=O)c(C)c1 [Compound A102]
2 (2=20-39%): ALOMY PRE percentage damage (five point scale) [4]
5 (5=80-100%): SETFA POST percentage damage (five point scale) (Setaria faberi (SETFA) [1]) | SETFA PRE percentage damage (five point scale) (Setaria faberi (SETFA) [2]) | LOLPE PRE percentage damage (five point scale) (Lolium perenne (LOLPE) [3]) | AVEFA PRE percentage damage (five point scale) (Avena fatua (AVEFA) [5]) | ECHCG PRE percentage damage (five point scale) [6] | LOLPE POST percentage damage (five point scale) (Lolium perenne (LOLPE) [7]) | ALOMY POST percentage damage (five point scale) [8] | AVEFA POST percentage damage (five point scale) (Avena fatua (AVEFA) [9]) | ECHCG POST percentage damage (five point scale) [10]

CC#Cc1cc(C)c(C2C(=O)CC3(CCN(C(=O)Cc4cccnn4)CC3)CC2=O)c(C)c1 [Compound A103]
4 (4=60-79%): LOLPE PRE percentage damage (five point scale) (Lolium perenne (LOLPE) [3]) | ALOMY PRE percentage damage (five point scale) [4] | AVEFA PRE percentage damage (five point scale) (Avena fatua (AVEFA) [5])
5 (5=80-100%): SETFA POST percentage damage (five point scale) (Setaria faberi (SETFA) [1]) | SETFA PRE percentage damage (five point scale) (Setaria faberi (SETFA) [2]) | ECHCG PRE percentage damage (five point scale) [6] | LOLPE POST percentage damage (five point scale) (Lolium perenne (LOLPE) [7]) | ALOMY POST percentage damage (five point scale) [8] | AVEFA POST percentage damage (five point scale) (Avena fatua (AVEFA) [9]) | ECHCG POST percentage damage (five point scale) [10]

CC#Cc1cc(C)c(C2C(=O)CC3(CCN(C(=O)Cc4cnccn4)CC3)CC2=O)c(C)c1 [Compound A104]
4 (4=60-79%): ALOMY PRE percentage damage (five point scale) [4]
5 (5=80-100%): SETFA POST percentage damage (five point scale) (Setaria faberi (SETFA) [1]) | SETFA PRE percentage damage (five point scale) (Setaria faberi (SETFA) [2]) | LOLPE PRE percentage damage (five point scale) (Lolium perenne (LOLPE) [3]) | AVEFA PRE percentage damage (five point scale) (Avena fatua (AVEFA) [5]) | ECHCG PRE percentage damage (five point scale) [6] | LOLPE POST percentage damage (five point scale) (Lolium perenne (LOLPE) [7]) | ALOMY POST percentage damage (five point scale) [8] | AVEFA POST percentage damage (five point scale) (Avena fatua (AVEFA) [9]) | ECHCG POST percentage damage (five point scale) [10]

CC#Cc1cc(C)c(C2C(=O)CC3(CCN(C(=O)NC(=O)c4cccnc4)CC3)CC2=O)c(C)c1 [Compound A145]
2 (2=20-39%): AVEFA PRE percentage damage (five point scale) (Avena fatua (AVEFA) [5])
4 (4=60-79%): LOLPE PRE percentage damage (five point scale) (Lolium perenne (LOLPE) [3])
5 (5=80-100%): SETFA POST percentage damage (five point scale) (Setaria faberi (SETFA) [1]) | SETFA PRE percentage damage (five point scale) (Setaria faberi (SETFA) [2]) | ECHCG PRE percentage damage (five point scale) [6] | LOLPE POST percentage damage (five point scale) (Lolium perenne (LOLPE) [7]) | ALOMY POST percentage damage (five point scale) [8] | AVEFA POST percentage damage (five point scale) (Avena fatua (AVEFA) [9]) | ECHCG POST percentage damage (five point scale) [10]
3 (3=40-59%): ALOMY PRE percentage damage (five point scale) [4]

CC#Cc1cc(C)c(C2C(=O)CC3(CCN(C(=O)C(C)(C)O)CC3)CC2=O)c(C)c1 [Compound A146]
5 (5=80-100%): SETFA POST percentage damage (five point scale) (Setaria faberi (SETFA) [1]) | SETFA PRE percentage damage (five point scale) (Setaria faberi (SETFA) [2]) | LOLPE PRE percentage damage (five point scale) (Lolium perenne (LOLPE) [3]) | ALOMY PRE percentage damage (five point scale) [4] | ECHCG PRE percentage damage (five point scale) [6] | LOLPE POST percentage damage (five point scale) (Lolium perenne (LOLPE) [7]) | ALOMY POST percentage damage (five point scale) [8] | AVEFA POST percentage damage (five point scale) (Avena fatua (AVEFA) [9]) | ECHCG POST percentage damage (five point scale) [10]
4 (4=60-79%): AVEFA PRE percentage damage (five point scale) (Avena fatua (AVEFA) [5])
